Laboratory results published in US10076519B2 (CYTOKINETICS, INC., priority 2010, dated 2018).

System: rabbit skeletal myofibrils (fast skeletal myofibrils)
Assay: Activation of fast skeletal myofibrils (PUMA assay, PK/LDH-coupled ATPase at pCa25)
Type: biochemical
Summary of the method: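 ATPase activity of Triton-washed rabbit skeletal myofibrils, roughly 90% fast fibres, tracked by NADH loss at 340 nm through a PK/LDH-coupled ADP-regenerating system. Calcium set to 25% of maximal activity (pCa25), in PIPES 12 mM pH 6.8 with 2 mM MgCl2 and 1 mM DTT; AC1.4 reported.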

[1] = AC1.4 determined according to the procedure of Example 39, reported as class symbols
[2] = median AC1.4 class, procedure of Example 39
[3] = median AC1.4 reported as class, procedure of Example 39

Row | Mean AC1.4 [1] | Mean AC1.4 [2] | SMILES | further results
1 |  | B (B=1-10 uM) | O=C(c1cnc(-c2ccc(NCC3(c4ncccc4F)CCC3)nn2)s1)N1CCS(=O)(=O)CC1 [4-({2-[6-({[(3-fluoro-2-pyridyl)cyclobutyl]methyl}ami-no)pyridazin-3-yl]-1,3-thiazol-5-yl}carbonyl)-1,4-thiazaperhydroine-1,1-dione] | 
2 |  | C (C=10-20 uM) | O=C1CN(C(=O)c2cnc(-c3ccc(NCC4(c5ncccc5F)CCC4)nn3)s2)CCN1 [4-({2-[6-({[(3-fluoro-2-pyridyl)cyclobutyl]methyl}ami-no)pyridazin-3-yl]-1,3-thiazol-5-yl}carbonyl)piperazin-2-one] | 
3 |  | B (B=1-10 uM) | NC(=O)C1CN(C(=O)c2cnc(-c3ccc(NCC4(c5ncccc5F)CCC4)nn3)s2)CCN1 (centres unmarked) [4-({2-[6-({[(3-fluoro-2-pyridyl)cyclobutyl]methyl}ami-no)pyridazin-3-yl]-1,3-thiazol-5-yl}carbonyl)piperazine-2-carboxamide] | 
4 |  | B (B=1-10 uM) | NC(=O)c1nc(-c2ccc(NCC3(c4ncccc4F)CCC3)nn2)cs1 [4-[6-({[(3-fluoro-2-pyridyl)cyclobutyl]methyl}ami-no)pyridazin-3-yl]-1,3-thiazole-2-carboxamide] | 

Continued, compound first:

Row | SMILES | Mean AC1.4 [1] | Mean AC1.4 [2] | further results
5 | CC(CNc1ccc(-c2cccc(C(N)=O)c2)nn1)c1ccccc1 (centres unmarked) [3-{6-[(2-phenylpropyl)amino]pyridazin-3-yl}benzamide] | B (B=1-10 uM) |  | 
6 | CC(CNc1ccc(-c2cccc(C(N)=O)c2)nn1)N1CCCCC1 (centres unmarked) [3-{6-[(2-piperidylpropyl)amino]pyridazin-3-yl}benzamide] | D (D=>20 uM) |  | 
7 | NC(=O)c1cccc(-c2ccc(NCCc3cnccn3)nn2)c1 [3-{6-[(2-pyrazin-2-ylethyl)amino]pyridazin-3-yl}benzamide] | D (D=>20 uM) |  | 
8 | NC(=O)c1cccc(-c2ccc(NC3(c4ccccn4)CCC3)nn2)c1 [3-{6-[(2-pyridylcyclobutyl)amino]pyridazin-3-yl}benzamide] |  | D (D=>20 uM) | 
9 | CC(C)(C)CCNc1ccc(-c2cccc(C(N)=O)c2)nn1 [3-{6-[(3,3-dimethylbutyl)amino]pyridazin-3-yl}benzamide] | D (D=>20 uM) |  | 
10 | NC(=O)c1cccc(-c2ccc(NCC3CCc4ccccc43)nn2)c1 (centres unmarked) [3-{6-[(indanylmethyl)amino]pyridazin-3-yl}benzamide] | B (B=1-10 uM) |  | 
11 | CC(C)(C)Nc1ccc(-c2cccc(C(N)=O)c2)nn1 [3-{6-[(tert-butyl)amino]pyridazin-3-yl}benzamide] |  | C (C=10-20 uM) | 
12 | CC(C)(CNc1ccc(C2=CCN(S(C)(=O)=O)CC2)nn1)c1ccc(F)cc1 [4-(6-{[2-(4-fluorophenyl)-2-methylpropyl]amino}pyridazin-3-yl)-1-(methylsulfonyl)-1,2,5,6-tetrahydropyridine] | B (B=1-10 uM) |  | 
13 | CC(C)(CNc1ccc(-c2ccc(C(N)=O)cc2)nn1)c1ccc(F)cc1 [4-(6-{[2-(4-fluorophenyl)-2-methylpropyl]amino}pyridazin-3-yl)benzamide] | B (B=1-10 uM) |  | 
14 | CC(C)(CNc1ccc(-c2ccc(C#N)cc2)nn1)c1ccc(F)cc1 [4-(6-{[2-(4-fluorophenyl)-2-methylpropyl]amino}pyridazin-3-yl)benzenecarbonitrile] | B (B=1-10 uM) |  | 
15 | CC(C)(CNc1ccc(-c2ccc(C(=O)c3ccccc3)cc2)nn1)c1ccc(F)cc1 [4-(6-{[2-(4-fluorophenyl)-2-methylpropyl]amino}pyridazin-3-yl)phenyl phenyl ketone] | D (D=>20 uM) |  | 
16 | O=S1(=O)CCN(Cc2cnc(-c3ccc(NCC4(c5ncccc5F)CCC4)nn3)s2)CC1 [4-({2-[6-({[(3-fluoro-2-pyridyl)cyclobutyl]methyl}ami-no)pyridazin-3-yl]-1,3-thiazol-5-yl}methyl)-1,4-thiazaperhydroine-1,1-dione] |  |  | Mean AC1.4 [3]: D (D=>20 uM)
17 | O=C1NCc2c1cccc2-c1ccc(NC[C@]2(c3ncccc3F)C[C@H](F)C2)nn1 [4-[6-({[3-fluoro-1-(3-fluoro(2-pyridyl))cyclobutyl]methyl}ami-no)pyridazin-3-yl]isoindolin-1-one] |  |  | Mean AC1.4 [3]: B (B=1-10 uM)
